The values that follow are results of earlier work, collected in patent US11826376B2, “Methods of treating heart failure with preserved ejection fraction employing dapagliflozin and compositions comprising the same” (AstraZeneca AB, priority 2018, dated 2023).

Structures are written as SMILES.

Data set [1] has as its target human renal SGLT2 (Homo sapiens, UniProt P31639). The following applies: background statement, no data.

Chain of human renal SGLT2 (P31639 whole entry): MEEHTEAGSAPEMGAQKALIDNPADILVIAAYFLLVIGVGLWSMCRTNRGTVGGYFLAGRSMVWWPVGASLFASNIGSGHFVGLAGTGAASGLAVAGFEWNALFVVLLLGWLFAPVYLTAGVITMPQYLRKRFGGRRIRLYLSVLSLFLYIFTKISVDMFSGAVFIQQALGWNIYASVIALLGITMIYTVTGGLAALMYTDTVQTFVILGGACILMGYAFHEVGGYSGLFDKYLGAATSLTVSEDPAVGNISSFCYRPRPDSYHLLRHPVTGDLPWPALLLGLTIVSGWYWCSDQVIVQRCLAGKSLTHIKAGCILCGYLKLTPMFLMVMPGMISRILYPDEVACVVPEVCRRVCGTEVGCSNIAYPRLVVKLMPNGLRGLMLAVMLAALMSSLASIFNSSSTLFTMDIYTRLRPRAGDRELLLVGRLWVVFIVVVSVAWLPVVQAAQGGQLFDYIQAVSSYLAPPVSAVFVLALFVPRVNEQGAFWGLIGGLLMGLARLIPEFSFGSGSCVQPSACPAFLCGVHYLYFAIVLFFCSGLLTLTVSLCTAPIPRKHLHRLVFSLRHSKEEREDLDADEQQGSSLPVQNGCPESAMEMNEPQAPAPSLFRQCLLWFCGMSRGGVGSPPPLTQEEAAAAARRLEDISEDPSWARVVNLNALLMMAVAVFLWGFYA

On to `CCOc1ccc(Cc2cc([C@@H]3O[C@H](CO)[C@@H](O)[C@H](O)[C@H]3O)ccc2Cl)cc1` [Dapagliflozin, dapagliflozin], for which the “inhibitor of human renal SGLT2” value in data set [1] was “potent, highly selective”. For the same compound, where the note is “Shigiyama et al. 2017”, the albuminuria result is reported as “reduce”, the arterial stiffness entry is given as “reduces”, the blood uric acid entry is reported as “reduce” and the systolic blood pressure result is on record as “reduce”. Besides, for the setting “Shigiyama et al. 2017”, the weight result is “reduce”. Under “background statement”, the HbA1c result is on record as “effectively lowers” and the “risk of inducing hypoglycaemia” value is listed as “low risk”.
